Consider 4 molecules from patent US4330558A, “Pharmaceutical composition and method for treating peripheral orthostatic hypotension” (Sumitomo Chemical Company, Limited, priority 1980, dated 1982).

By LD50 is commonly meant the dose expected to kill half of the subjects tested. The low end stands for greater toxicity, the high end for lower toxicity.

Like-named read-outs stand apart in the source and are kept apart here.

Data set [1] relates to patients with FAP. In words: Intravenous drip infusion test of DL-threo-DOPS in normal persons and FAP patients (pulse rate, blood pressure). Format: in vivo, human. To be noted: 200 mg i.v. drip infusion over 2 hours. How it is done:
(1) Intravenous drip infusion test of DL-threo-DOPS The test was carried out by administering 200 mg of DL-threo-DOPS in 400 ml of isotonic sodium chloride solution over 2 hours to four persons (2 normal persons and 2 FAP patients) by intravenous drip infusion (1.7 mg/min.). Changes in pulse rate and blood pressure were determined. In the graphs A to D of FIG. 1, the abscissa axes indicate time (min.) and the ordinate axes indicate changes in pulse rate, maximum blood pressure (mmHg) and minimum blood pressure (mmHg), and drip infusion rate of DL-threo-DOPS (mg/min.), respectively. In the graphs A to C, the symbol o indicates normal subjects (2 persons) and .cndot., FAP patients (2 persons).

The subject of data set [2] is patients with FAP. Format: in vivo, human. The note with it: 600 mg oral. How it is done:
(2) Oral administration test of DL-threo-DOPS
The test was carried out by administering orally 600 mg of DL-threo-DOPS to nine persons (4-normal persons and 5 FAP patients). Plasma norepinephrine levels and blood pressure were determined.
In the graphs A to C of FIG. 2, the abscissa axes indicate time (hrs.) and the ordinate axes indicate plasma norepinephrine level (pg/ml), change in maximum blood pressure (mmHg) and minimum blood pressure (mmHg), respectively. The results are expressed as mean±S.E.

Another data set has as its system FAP patients. Description: Long term oral administration of DL-threo-DOPS in FAP patients (simple blind test, 4 weeks). To be noted: 1.2 g/day oral. The data set is classed as in vivo, human. How it is done:
(3) Long term oral administration of DL-threo-DOPS The clinical trial was carried out according to a simple blind test procedure. […] The patients refrained from taking any drug for one week before administration of DL-threo-DOPS. After 4 weeks of administration period of DL-threo-DOPS,the patients were given placebos containing lactose. […] In the graphs A to F of FIG. […] The results are expressed as mean±S.E.

Data set [3] has as its system patients suffering from various kinds of orthostatic hypotension. Description: Effect of intravenous DL-threo-DOPS on blood pressure in patients suffering from various kinds of orthostatic hypotension. The data set is classed as in vivo, human. To be noted: i.v. drip infusion. How it is done: Under the same condition as in FAP, DL-threo-DOPS was administered intravenously to patients suffering from familial diabetes mellitus, aortitis syndrome, idiopathic orthostatic hypotension, acute pan-dysautonomia and ectopic pineal tumor, respectively. Changes in pulse rate and blood pressure were determined. In the graphs A to D of FIGS. 4, 5, 6, 7 and 8, the abscissa axes indicate time (min.) and the ordinate axes indicate change in pulse rate, maximum blood pressure (mmHg) and minimum blood pressure (mmHg), and drip infusion rate of DL-threo-DOPS (mg/min.), respectively.

Data set [4] in a line: Acute toxicity, LD50 in mice. The data set is classed as in vivo. To be noted: mouse, in vivo. The text has this:
(§1) Toxicity of threo-DOPS is extremely low. LD50 value in mice is more than 10 g/kg (p.o.) and about 10 g/kg (i.p.).

Another data set relates to mice. In words: Acute toxicity, LD50 in mice. Format: in vivo.
Excerpt: as §1

The next data set concerns orthostatic hypotension. In words: Clinical effect of threo-DOPS on blood pressure, summary of the pharmacological tests. The data set is classed as in vivo, human.
A short description of data set [5]: Clinical observation of side effects. Format: in vivo, human.
For data set [6] the following is noted: in a certain case; cited from earlier work.
Data set [7] in a line: Comparison of effectiveness of L-isomer and DL-isomer in the pharmacological tests. Format: in vivo. The note with it: L-isomer vs DL-isomer. An excerpt: In general, threo-DOPS exists as optical isomers and there are the L- and D-isomers as well as the racemic DL-isomer. The term "threo-DOPS" used herein means DL-threo-DOPS and L-threo-DOPS.
In data set [8] the test system is aromatic L-amino acid decarboxylase. To be noted: in the living body; cited from earlier work.
[9] abbreviates: summary of the pharmacological tests.

Take `N[C@H](C(=O)O)[C@H](O)c1ccc(O)c(O)c1` (relative stereo) [DL-threo-DOPS, DL-threo-3,4-dihydroxyphenylserine]: in the data set with patients with FAP [1] (FAP patients (2)), the blood pressure response result is listed as “a sensitive hypertensive response was observed”; the “time course of the response” value is “gradual and sustained”. For the same molecule, in the data set on patients with FAP [1] (normal persons (2)), the “change in blood pressure” value is on record as “did not change either pulse rate or blood pressure” and the “change in pulse rate” value is reported as “did not change either pulse rate or blood pressure”. Moreover, in the data set with patients with FAP [2] (FAP patients (FIG. 2)), the “change in plasma norepinephrine level” value was “almost parallel with that of blood pressure” and the “time at which plasma norepinephrine level was restored to the normal level after oral administration” value came out at 5 h. For the same molecule, in the data set with patients with FAP [2] (inferred from the results), the “absorption after oral administration” value is “absorbed in the intestine” and the “conversion by aromatic L-amino acid decarboxylase after oral administration” value is recorded as “converted to (-) norepinephrine”. For the same molecule, in the data set on patients with FAP [2] (FAP patients (5)), the hypertensive action result is “gradual and sustained hypertensive action”; the “time of peak of hypertensive action after oral administration” value worked out at 5 h. In addition, in the data set on patients with FAP [2] (normal subjects (4)), the “change in blood pressure” value is “no significant change in blood pressure was observed”. In the data set on FAP patients, the “activity of daily living” value is listed as “restored”; the “dizziness and giddiness caused by orthostatic hypotension” value is recorded as “mitigated”; the side effect result is on record as “No side effect was observed”. Moreover, the “blood pressure at 11 a.m. and 1 p.m.” value with FAP patients (three patients suffering from orthostatic hypotension, 3 and 5 hours after administration) is “a significant rise of blood pressure was observed”. Also, in data set [3] (acute pan-dysautonomia, person), the pressor response entry was “Pressor response was observed”. In addition, the pressor response entry in data set [3] (aortitis syndrome, person) is “Pressor response was observed”. In data set [3] (conclusion from cases (1) to (5)), the “selectivity for type of orthostatic hypotension” value is “selective effect on the "peripheral" type of orthostatic hypotension”. Further, in [3] (ectopic pineal tumor, person), the pressor response entry was “Pressor response was not observed”. Besides, the pressor response result in data set [3] (familial diabetes mellitus, patient A (asymptomatic orthostatic hypotension)) is listed as “showed pressor response”. In [3] (idiopathic orthostatic hypotension, person), the pressor response result is “Pressor response was observed”.

In turn, `N[C@H](C(=O)O)[C@H](O)c1ccc(O)c(O)c1` (relative stereo) [threo-DOPS, threo-3,4-dihydroxyphenylserine] gave an LD50 in [4] (ip) of about 10000 mg/kg. The same molecule had an LD50 in [4] (po) of over 10000 mg/kg. For the same molecule, in the data set on mice, the toxicity result was “extremely low”. Moreover, in the data set with orthostatic hypotension (FAP as model of dysautonomia syndrome), the “effect on orthostatic hypotension” value is “effective on orthostatic hypotension, inducing substantial and sustained elevation of blood pressure”. In addition, in the data set with orthostatic hypotension (setting [9]), the “effect on blood pressure of normal subjects and of patients suffering from central orthostatic hypotension” value was “does not have a significant effect on blood pressure”; the “effect on peripheral orthostatic hypotension” value is on record as “selective effect on "peripheral" orthostatic hypotension”. The “side effect observed clinically” value in data set [5] is on record as “no side effect is observed clinically”.

Take `NC(C(=O)O)C(O)c1ccc(O)c(O)c1` (centres unmarked) [DOPS]: the “effect on blood pressure” value in [6] was “anti-hypertensive action”.

In the case of `N[C@H](C(=O)O)[C@H](O)c1ccc(O)c(O)c1` [L-threo-DOPS, L-threo-3,4-dihydroxyphenylserine], in data set [7], the “amount for the same effect relative to the DL-isomer” value is “same effect as the DL-isomer in one half the amount” and the “effectiveness relative to the DL-isomer” value is “about twice as effective as the DL-isomer”. Also, in data set [8], the “conversion by aromatic L-amino acid decarboxylase” value is reported as “converted to (-) norepinephrine”.
